Results taken from US20240082286A1, “COMBINATION THERAPIES FOR TREATMENT OF T-CELL LYMPHOMAS” (Otsuka Pharmaceutical Co., Ltd., priority 2022, published 2024).

Experiments:
RIPK3 [1] = experiment: RIPK3 expression by western blot after decitabine treatment, Karpas-299 cells; format: cell-based, human; settings: 0.01, 0.1, 1 μM decitabine for 4 days, FIG. 2
RIPK3 [2] = experiment: RIPK3 expression by western blot after decitabine treatment, CT26 cells; format: cell-based, mouse; settings: 0.01, 0.1, 1 μM decitabine for 2 days, FIG. 2
Experimental: Two types of mouse cell lines (BW5147.G.1.4, a T cell lymphoma from DSMZ (Braunschweig, Germany) and CT26) were treated with 0.01, 0.1, 1 μM or no decitabine (DAC) for 2 days.

RIPK3 gene promoter = experiment: Methylation status of RIPK3 gene by pyrosequencing (EpigenDX); format: cell-based, human; settings: H9, Karpas-299, Sup-M2, Sup-T1 cell lines; 0.01, 0.1, 1 μM decitabine for 4 days; FIG. 3 B and C
Experimental: The DNA of human H9, Karpas-299, Sup-M2 (from DSMZ), and Sup-T1 (from ECACC) cell lines were sequenced to identify methylation status of the RIPK3 gene by pyrosequencing (EpigenDX). […] These cell lines were treated with 0.01, 0.1, and 1 μM decitabine (DAC) for 4 days, and DNA of the cells were sequenced to identify methylation status of the RIPK3 gene by pyrosequencing (EpigenDX).

LINE-1 = experiment: Methylation level of LINE-1 after decitabine treatment; format: cell-based, human; settings: 0.01, 0.1, 1 μM decitabine for 4 days; FIG. 3 D
H9 cells = experiment: IFNγ release, electrochemiluminescence immunoassay (Meso Scale Discovery); format: cell-based, human; settings: decitabine alone 0.001-10 μM for 48 hours; FIG. 4
Experimental: Human T-cell lymphoma (H9) cell line was treated with decitabine (DAC) (0.001, 0.003, 0.01, 0.03, 0.1, 0.3, 1, 3 and 10 μM) for 48 hours, and the release of IFNγ was measured an electrochemiluminescence immunoassay (Meso Scale Discovery). […] Thus, the treatment by decitabine will potentially result in improved response rate to the tolinapant treatment.

DNMT1 = experiment: Western blotting of BW5147.G.1.4 lysates, DNMT1; format: cell-based, mouse; settings: 48 hours, as the concentration of decitabine increased, FIG. 8
Experimental: After 48 hours, the cell was lysated and interferon signaling and PD markers were analyzed by Western blotting, as shown in FIG. 8.

[3] = test system: KARPAS-299 xenograft mouse model; experiment: Gene expression changes in KARPAS-299 xenografts; format: in vivo; settings: treated for five days, FIG. 12
Experimental: KARPAS-299 xenograft mouse model was prepared by injecting KARPAS-299 cells. The mice bearing the KARPAS-299 xenografts were treated with decitabine (DAC) and/or tolinapant for five days. The tumor cells were collected and analyzed for gene expression changes (FIG. 12).

RIPK3 [4] = experiment: RIPK3 western blotting of KARPAS-299 xenograft cell lysates; format: in vivo, mouse; settings: five days treatment, FIG. 13
CT26 cells = experiment: Lytic cell death by real-time microscopy (IncuCyte) in CT26 control and RIPK3 re-expressed CT26 cells; format: cell-based, mouse; settings: 1 μM tolinapant; RIPK3 re-expressed CT26 cells versus CT26 control cells; FIG. 1B
Experimental: CRISPR activation (CRISPRa) was used to re-express RIPK3 in the CT26 line (from ATCC) (FIG. 1A). […] The lytic cell death upon treatment of tolinapant was measured for the CT26 control cells and the RIPK3 re-expressed CT26 cells, by real-time microscopy (IncuCyte) assays (FIG. 1B).

clAP1 = experiment: Western blotting of BW5147.G.1.4 lysates, clAP1; format: cell-based, mouse; settings: 48 hours, when tolinapant was added to decitabine, FIG. 8
Experimental: After 48 hours, the cell was lysated and interferon signaling and PD markers were analyzed by Western blotting, as shown in FIG. 8. From the western blot, it was confirmed that the expression of DNMT1 was reduced as the concentration of decitabine increased, and the expression of clAP1 was suppressed when tolinapant was added.

| Structure (SMILES) | RIPK3 expression (RIPK3 [1]) | RIPK3 expression (RIPK3 [2]) | methylation of RIPK3 gene promoter (RIPK3 gene promoter) | methylation of LINE-1 (LINE-1) | IFNγ released from H9 cells (H9 cells) | expression of DNMT1 (DNMT1) | gene expression changes in tumor cells [3] | RIPK3 re-expression by western blotting (RIPK3 [4]) | lytic cell death upon treatment of tolinapant (CT26 cells) | expression of clAP1 (clAP1) |
| --- | --- | --- | --- | --- | --- | --- | --- | --- | --- | --- |
| Nc1ncn([C@H]2C[C@H](O)[C@@H](CO)O2)c(=O)n1 [decitabine, 5-aza-2′-deoxycytidine] | RIPK3 expression was detected | RIPK3 expression was detected | demethylation of RIPK3 gene promoter | demethylation of LINE-1 | increased | reduced | upregulation of interferons, and other cytokines/chemokines and cancer testis antigens | re-expression of RIPK3 was also confirmed | – | – |
| C[C@@H]1CN(CC(=O)N2CC(C)(C)c3nc(CO)c(Cc4ccc(F)cc4)cc32)[C@@H](CN2CCOC[C@H]2C)CN1 [tolinapant, 1-(6-(4-fluorobenzyl)-5-(hydroxymethyl)-3,3-dimethyl-2,3-dihydro-1H-pyrrolo[3,2-b]pyridin-1-yl)-2-((2R,5R)-5-methyl-2-(((R)-3-methylmorpholino)methyl)piperazin-1-yl)ethan-1-one] | – | – | – | – | – | – | – | – | higher lytic cell death | suppressed |
